Data: PubChem BioAssay AID1963870 (Molecular Pharmacology Branch, DTP, NCI, 2024)
Several values for one entry are separate records, joined by “and”; a condition that tells them apart may be missing. Equal entries are not always repeated.

System: 292921-168-R-J2-PDC KRAS tumor spheroid viability
Assay: Anticancer human tumor 292921-168-R-J2-PDC patient-derived pancreatic carcinoma cell line growth inhibition [KRAS2]
Conditions: spheroids with HUVEC and MSC; for viability, T/C: stronger effect = lower value
Method in brief: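 Combination screen of spheroid viability in tumor-cell co-cultures with endothelial (HUVEC) and mesenchymal stem cell stroma. Each agent was tested in half-log dilutions, topping at clinical Cmax or at 10 microM without a known Cmax.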

[1] = curve of first compound, second compound 0.1 µM
[2] = curve of first compound, second compound 0.316 µM
[3] = curve of first compound, second compound 1 µM
[4] = curve of first compound, second compound 3.16 µM
[5] = curve of first compound, second compound 10 µM
[6] = second compound 0.1 µM, first compound 0.0316 µM
[7] = second compound 0.1 µM, first compound 0.1 µM
[8] = second compound 0.1 µM, first compound 0.316 µM
[9] = second compound 0.1 µM, first compound 1 µM
[10] = second compound 0.1 µM, first compound 3.16 µM
[11] = second compound 0.1 µM, first compound 10 µM
[12] = second compound 0.316 µM, first compound 0.0316 µM
[13] = second compound 0.316 µM, first compound 0.1 µM
[14] = second compound 0.316 µM, first compound 0.316 µM
[15] = second compound 0.316 µM, first compound 1 µM
[16] = second compound 0.316 µM, first compound 3.16 µM
[17] = second compound 0.316 µM, first compound 10 µM
[18] = second compound 1 µM, first compound 0.0316 µM
[19] = second compound 1 µM, first compound 0.1 µM
[20] = second compound 1 µM, first compound 0.316 µM
[21] = second compound 1 µM, first compound 1 µM
[22] = second compound 1 µM, first compound 3.16 µM
[23] = second compound 1 µM, first compound 10 µM
[24] = second compound 3.16 µM, first compound 0.0316 µM
[25] = second compound 3.16 µM, first compound 0.1 µM
[26] = second compound 3.16 µM, first compound 0.316 µM
[27] = second compound 3.16 µM, first compound 1 µM
[28] = second compound 3.16 µM, first compound 3.16 µM
[29] = second compound 3.16 µM, first compound 10 µM
[30] = second compound 10 µM, first compound 0.0316 µM
[31] = second compound 10 µM, first compound 0.1 µM
[32] = second compound 10 µM, first compound 0.316 µM
[33] = second compound 10 µM, first compound 1 µM
[34] = second compound 10 µM, first compound 3.16 µM
[35] = second compound 10 µM, first compound 10 µM
[36] = second compound 0.1 µM, first compound 0.00316 µM
[37] = second compound 0.1 µM, first compound 0.01 µM
[38] = second compound 0.316 µM, first compound 0.00316 µM
[39] = second compound 0.316 µM, first compound 0.01 µM
[40] = second compound 1 µM, first compound 0.00316 µM
[41] = second compound 1 µM, first compound 0.01 µM
[42] = second compound 3.16 µM, first compound 0.00316 µM
[43] = second compound 3.16 µM, first compound 0.01 µM
[44] = second compound 10 µM, first compound 0.00316 µM
[45] = second compound 10 µM, first compound 0.01 µM
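Also: drug exposure lasted seven days after spheroids formed for three days.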
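For viability, T/C in this document: percent of DMSO vehicle control viability which is 100%.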

Cn1nccc1Nc1nccc(-c2cc3c(s2)C(C)(C)N(CCN2CCOCC2)C3=O)n1 + COc1cc2nc(C)nc(NC(C)c3cc(N)cc(C(F)(F)F)c3)c2cc1OC1CCOC1
IC50 [1]: 64.7 nM
IC50 [2]: 54.7 nM
IC50 [3]: 47.2 nM
IC50 [4]: 32.6 nM
IC50 [5]: < 31.6 nM
viability, T/C [6]: 74.8%
viability, T/C [7]: 34.9%
viability, T/C [8]: 14.8%
viability, T/C [9]: 11.1%
viability, T/C [10]: 9.76%
viability, T/C [11]: 9.52%
viability, T/C [12]: 66.2%
viability, T/C [13]: 32.1%
viability, T/C [14]: 16.4%
viability, T/C [15]: 10.4%
viability, T/C [16]: 8.74%
viability, T/C [17]: 9.26%
viability, T/C [18]: 60.1%
viability, T/C [19]: 31.6%
viability, T/C [20]: 15.8%
viability, T/C [21]: 10.9%
viability, T/C [22]: 9.75%
viability, T/C [23]: 10.1%
viability, T/C [24]: 50.7%
viability, T/C [25]: 26.1%
viability, T/C [26]: 14.3%
viability, T/C [27]: 10.2%
viability, T/C [28]: 8.41%
viability, T/C [29]: 10.2%
viability, T/C [30]: 25.4%
viability, T/C [31]: 15.9%
viability, T/C [32]: 10.3%
viability, T/C [33]: 9.05%
viability, T/C [34]: 9.73%
viability, T/C [35]: 7.56%

Cn1ncnc1[C@H]1c2n[nH]c(=O)c3cc(F)cc(c23)N[C@@H]1c1ccc(F)cc1 + CC1OCC2(CCN(c3cnc(Sc4ccnc(N)c4Cl)c(N)n3)CC2)C1N
IC50 [1]: > 100 nM
IC50 [2]: > 100 nM
IC50 [3]: 0.634 nM
IC50 [4]: < 0.316 nM
IC50 [5]: < 0.316 nM
viability, T/C (second compound 0.1 µM, first compound 0.000316 µM): 84.8%
viability, T/C (second compound 0.1 µM, first compound 0.001 µM): 78.6%
viability, T/C [36]: 82.5%
viability, T/C [37]: 76.4%
viability, T/C [6]: 66.3%
viability, T/C [7]: 58.2%
viability, T/C (second compound 0.316 µM, first compound 0.000316 µM): 66.1%
viability, T/C (second compound 0.316 µM, first compound 0.001 µM): 60.9%
viability, T/C [38]: 65%
viability, T/C [39]: 56%
viability, T/C [12]: 59.4%
viability, T/C [13]: 51.9%
viability, T/C (second compound 1 µM, first compound 0.000316 µM): 48.7%
viability, T/C (second compound 1 µM, first compound 0.001 µM): 51.7%
viability, T/C [40]: 49.2%
viability, T/C [41]: 44.4%
viability, T/C [18]: 39.2%
viability, T/C [19]: 39.1%
viability, T/C (second compound 3.16 µM, first compound 0.000316 µM): 40.8%
viability, T/C (second compound 3.16 µM, first compound 0.001 µM): 39%
viability, T/C [42]: 37.4%
viability, T/C [43]: 36.2%
viability, T/C [24]: 33.4%
viability, T/C [25]: 30.8%
viability, T/C (second compound 10 µM, first compound 0.000316 µM): 34.5%
viability, T/C (second compound 10 µM, first compound 0.001 µM): 34.5%
viability, T/C [44]: 32%
viability, T/C [45]: 30.6%
viability, T/C [30]: 29.5%
viability, T/C [31]: 26.5%

CCN1CCN(Cc2ccc(Nc3ncc(F)c(-c4cc(F)c5nc(C)n(C(C)C)c5c4)n3)nc2)CC1
viability, T/C (compound 0.00316 µM): 88.5% and 85.8% and 83.2%
viability, T/C (compound 0.01 µM): 72.1% and 73% and 63.1%
viability, T/C (compound 0.0316 µM): 57.3% and 49.2% and 53%
viability, T/C (compound 0.1 µM): 36.8% and 43.1% and 36.2%
viability, T/C (compound 0.316 µM): 28.3% and 34.9% and 27.1%
viability, T/C (compound 1 µM): 17.8% and 23.3% and 20.6%
IC50 (curve of compound): 46.4 nM and 47.4 nM and 32.1 nM

CC1OCC2(CCN(c3cnc(Sc4ccnc(N)c4Cl)c(N)n3)CC2)C1N (stereo not drawn)
viability, T/C (compound 0.0316 µM): 86.4% [middle of 4 runs]
IC50 (compound alone, run of 08/26/2021): 696 nM [middle of 5 runs]
IC50 (compound alone, run of 09/02/2021): 524 nM [middle of 5 runs]
IC50 (curve of compound): 619 nM [middle of 5 runs]

CCNC(=O)CC1N=C(c2ccc(Cl)cc2)c2cc(OC)ccc2-n2c(C)nnc21 (stereo not drawn) + CC1OCC2(CCN(c3cnc(Sc4ccnc(N)c4Cl)c(N)n3)CC2)C1N
IC50 [1]: 287 nM
IC50 [2]: 48.4 nM
IC50 [3]: < 31.6 nM
IC50 [4]: < 31.6 nM
IC50 [5]: < 31.6 nM
viability, T/C [6]: 69.1%
viability, T/C [7]: 60.6%
viability, T/C [8]: 48.1%
viability, T/C [9]: 40.1%
viability, T/C [10]: 29.4%
viability, T/C [11]: 27.5%
viability, T/C [12]: 53.5%
viability, T/C [13]: 45.5%
viability, T/C [14]: 31.4%
viability, T/C [15]: 31.7%
viability, T/C [16]: 25.1%
viability, T/C [17]: 19.7%
viability, T/C [18]: 45.6%
viability, T/C [19]: 43.7%
viability, T/C [20]: 33.5%
viability, T/C [21]: 31.6%
viability, T/C [22]: 19.9%
viability, T/C [23]: 18.3%
viability, T/C [24]: 37.4%
viability, T/C [25]: 34.6%
viability, T/C [26]: 26.2%
viability, T/C [27]: 23%
viability, T/C [28]: 20%
viability, T/C [29]: 16.1%
viability, T/C [30]: 33.8%
viability, T/C [31]: 31.1%
viability, T/C [32]: 28.4%
viability, T/C [33]: 23.1%
viability, T/C [34]: 20.9%
viability, T/C [35]: 17.3%

CCN1CCN(Cc2ccc(Nc3ncc(F)c(-c4cc(F)c5nc(C)n(C(C)C)c5c4)n3)nc2)CC1 + C=CC(=O)N1CCN(c2nc(=O)n(-c3c(C)ccnc3C(C)C)c3nc(-c4c(O)cccc4F)c(F)cc23)C(C)C1
IC50 [1]: 58.1 nM
IC50 [2]: 85.6 nM
IC50 [3]: 108 nM
IC50 [4]: 11.3 nM
IC50 [5]: < 3.16 nM
viability, T/C [36]: 95%
viability, T/C [37]: 78%
viability, T/C [6]: 54.4%
viability, T/C [7]: 45.6%
viability, T/C [8]: 30.5%
viability, T/C [9]: 22.1%
viability, T/C [38]: 95.7%
viability, T/C [39]: 82.4%
viability, T/C [12]: 64.4%
viability, T/C [13]: 47.6%
viability, T/C [14]: 35.3%
viability, T/C [15]: 26.7%
viability, T/C [40]: 96.8%
viability, T/C [41]: 82%
viability, T/C [18]: 66.2%
viability, T/C [19]: 50.4%
viability, T/C [20]: 37.2%
viability, T/C [21]: 22.6%
viability, T/C [42]: 57.7%
viability, T/C [43]: 50%
viability, T/C [24]: 45%
viability, T/C [25]: 34.6%
viability, T/C [26]: 28.9%
viability, T/C [27]: 21.2%
viability, T/C [44]: 18.5%
viability, T/C [45]: 23.9%
viability, T/C [30]: 23.7%
viability, T/C [31]: 22.9%
viability, T/C [32]: 20.4%
viability, T/C [33]: 6.06%

CC1COCCN1c1cc(-c2ccnn2C)c2ccnc(-c3ccn[nH]3)c2n1 (stereo not drawn)
viability, T/C (compound 0.01 µM): 48% [middle of 5 runs]
viability, T/C (compound 0.0316 µM): 23.6% [middle of 5 runs]
viability, T/C (compound 0.1 µM): 16.1% [middle of 5 runs]
viability, T/C (compound 0.316 µM): 14.2% [middle of 5 runs]
viability, T/C (compound 1 µM): 14.4% [middle of 5 runs]
viability, T/C (compound 3.16 µM): 16% [middle of 5 runs]
IC50 (curve of compound): < 10 nM
